# Key:
# Assay in all cases: selective drug sensitivity score (sDSS, relative to normal bone marrow) (sDSS (score)); higher = more potent and effective on the cell line relative to normal bone marrow cells
# Details in all cases: 72 h
# RPMI-8402 = test system: RPMI-8402
# MHH-CALL-3 = test system: MHH-CALL-3
# KASUMI-9 = test system: KASUMI-9
# KOPN-8 = test system: KOPN-8
# DND-41 = test system: DND-41
# CCRF-HSB2 = test system: CCRF-HSB2
# PEER = test system: PEER
# PF-382 = test system: PF-382
# KASUMI-2 = test system: KASUMI-2
# MOLT-4 = test system: MOLT-4
# TANOUE = test system: TANOUE
# MOLT-16 = test system: MOLT-16
# HAL-01 = test system: HAL-01
# COG-LL-394h = test system: COG-LL-394h
# NALL-1 = test system: NALL-1
# COG-LL-355h = test system: COG-LL-355h
# SUP-B15 = test system: SUP-B15
# REH = test system: REH
# NALM-16 = test system: NALM-16
# KASUMI-10 = test system: KASUMI-10
# 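Also: ALL cell lines in 384-well plates, five doses spanning 10,000-fold, each plate scaled between vehicle and 100 µmol/L benzalkonium chloride controls, sDSS an adapted area-under-curve metric.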
SMILES,selective drug sensitivity score (RPMI-8402),selective drug sensitivity score (MHH-CALL-3),selective drug sensitivity score (KASUMI-9),selective drug sensitivity score (KOPN-8),selective drug sensitivity score (DND-41),selective drug sensitivity score (CCRF-HSB2),selective drug sensitivity score (PEER),selective drug sensitivity score (PF-382),selective drug sensitivity score (KASUMI-2),selective drug sensitivity score (MOLT-4),selective drug sensitivity score (TANOUE),selective drug sensitivity score (MOLT-16),selective drug sensitivity score (HAL-01),selective drug sensitivity score (COG-LL-394h),selective drug sensitivity score (NALL-1),selective drug sensitivity score (COG-LL-355h),selective drug sensitivity score (SUP-B15),selective drug sensitivity score (REH),selective drug sensitivity score (NALM-16),selective drug sensitivity score (KASUMI-10)
CC(C)[C@H]1C(=O)N[C@@H](CCCNC(=N)N)C(=O)NCC(=O)N[C@@H](CC(=O)O)C(=O)N[C@H](Cc2ccccc2)C(=O)N1C [Cilengitide] (top concentration 10000 nM),0,0,0,13.8,0,0,0,0,0,0,0,0,6.5,0,11.8,0,0,0,0,0
NC(=O)/C(=C/n1cnc(-c2cc(C(F)(F)F)cc(C(F)(F)F)c2)n1)c1cncnc1 [Eltanexor] (top concentration 10000 nM),9.36,22.3,11.1,14.2,12.6,12,7.56,8.36,16.8,11.4,-11.8,14.4,5.46,4.66,2.76,14.5,13.7,7.06,-0.84,2.36
Cn1cc(-c2[nH]c3cc(NC(=O)[C@H](N)C4CCCCC4)cc4c3c2C=NNC4=O)cn1 (top concentration 10000 nM),9.68,0.38,7.88,7.38,10.3,6.98,5.68,4.48,-6.12,3.38,-5.22,9.68,-6.52,-0.72,4.58,1.98,6.58,10.2,3.98,5.88
CNc1ncc2cc(-c3cc(NC(=O)NCCC(C)(C)C)c(F)cc3C)c(C)nc2n1 (top concentration 10000 nM),0.66,8.66,9.16,21.3,8.06,20.2,15,9.66,0.36,6.26,-2.84,5.06,4.66,5.76,4.96,9.16,16.1,-2.24,1.76,3.96
CC(C)Nc1cc(-c2c[nH]c(C(=O)N[C@H](CO)c3cccc(Cl)c3)c2)c(Cl)cn1 [Ulixertinib] (top concentration 10000 nM),-1.38,-4.38,1.82,5.42,4.72,1.32,3.62,-0.28,7.82,1.72,-4.38,2.42,1.92,-0.18,3.92,3.82,6.62,-1.08,3.22,-3.08
CCN(CCO)CCCOc1ccc2c(Nc3cc(CC(=O)Nc4cccc(F)c4)[nH]n3)ncnc2c1 [AZD1152-HQPA] (top concentration 1000 nM),13,5.24,17.1,12.1,-1.46,23.5,21.8,9.94,6.44,13.5,-3.06,27.7,-4.46,3.24,9.54,8.84,22.2,17.2,0.34,16
CN[C@@H]1C[C@H]2O[C@@](C)([C@@H]1OC)n1c3ccccc3c3c4c(c5c6ccccc6n2c5c31)C(=O)N[C@H]4O [UCN-01] (top concentration 10000 nM),5.24,6.24,9.34,10.6,7.44,9.34,-0.66,5.44,2.84,3.74,-9.56,8.64,2.94,-1.46,0.94,4.34,2.64,5.24,0.74,6.94
CN(C(=O)c1ccc(F)cc1C(F)(F)F)C1CCN(c2nnc(-c3ccnn3C)c3ccccc23)CC1 [Taladegib] (top concentration 10000 nM),2.38,-0.32,-1.12,6.68,-1.12,-0.92,1.88,0.78,11,-0.12,4.98,3.88,2.78,2.08,-1.12,1.48,3.78,3.58,0.88,-1.12
O=C(O)c1ccc2c(c1)nc(Nc1cccc(Cl)c1)c1ccncc12 [Silmitasertib] (top concentration 10000 nM),3.3,-1.4,3.3,11.4,3.6,4.4,3.6,2,-1.4,0.6,-0.3,4.8,3.8,2.3,2.2,6.3,3,4.8,-1.4,3.8
NC1(C(=O)N[C@@H](CCO)c2ccc(Cl)cc2)CCN(c2ncnc3[nH]ccc23)CC1 [AZD-5363] (top concentration 10000 nM),3.52,6.72,3.52,6.72,-1.88,4.02,-0.88,4.42,7.32,7.42,-2.88,13.3,4.02,-1.08,4.72,5.92,0.42,11.3,0.12,1.62
FC(F)(F)c1ccc(CNc2ccc(Cc3c[nH]c4ncc(Cl)cc34)cn2)cn1 [Pexidartinib] (top concentration 10000 nM),0.58,-2.22,1.18,0.68,-2.12,1.38,-0.32,-1.22,-2.22,-1.92,-2.22,-0.72,2.08,-1.32,-1.92,-1.92,-0.22,0.38,-1.22,8.78
COc1c(C)cnc(Cn2cnc3c(Cl)nc(N)nc32)c1C [BIIB021] (top concentration 10000 nM),0.68,9.58,-1.22,12,8.58,10.8,3.58,5.78,3.88,11.8,-8.12,12.7,3.98,-4.02,1.08,0.38,4.48,5.68,2.38,8.78
CC(C)(C)c1cc(NC(=O)Nc2ccc(Oc3ccnc4[nH]c(=O)cnc34)cc2F)n(-c2ccccc2)n1 (top concentration 25000 nM),-3.18,-3.58,-1.18,2.22,-0.78,3.12,5.32,-3.88,-1.38,-2.98,-5.68,-1.08,2.02,0.82,-0.38,1.92,10.6,-0.78,-2.78,5.62
CCn1c(-c2nonc2N)nc2c(C#CC(C)(C)O)ncc(OC[C@H]3CCCNC3)c21 (top concentration 10000 nM),6.48,3.38,0.98,7.08,-1.12,0.88,1.68,4.48,6.38,8.68,-1.12,11.6,-0.62,2.18,-0.32,8.98,-0.32,12.9,2.68,0.88
COc1cc(Nc2ncc(F)c(Nc3ccc4c(n3)NC(=O)C(C)(C)O4)n2)cc(OC)c1OC [Tamatinib] (top concentration 10000 nM),0.68,-5.42,2.68,-2.12,-1.82,4.78,-5.42,-4.32,-5.42,-5.42,-5.32,-5.42,-2.92,-5.42,-3.82,-1.52,-0.62,-2.22,-1.42,8.58
CN[C@@H](C)C(=O)N[C@H](C(=O)N1CCC[C@H]1c1nc(C(=O)c2ccc(F)cc2)cs1)C1CCCCC1 [NVP-LCL161] (top concentration 25000 nM),-2.42,-3.22,-2.72,0.28,-2.72,1.88,-2.72,-4.12,2.88,-4.32,-5.82,-1.62,7.88,6.58,2.48,12.2,-3.82,2.38,-5.82,-3.52
Cn1cc(-c2ccc(F)c(C(F)(F)F)c2)nc1C1CCN(c2ncnc3[nH]ncc23)CC1 (top concentration 10000 nM),-0.14,5.16,0.66,9.76,1.16,-0.14,1.66,-0.14,13.3,0.36,0.96,0.36,1.66,-0.14,0.46,-0.14,8.76,-0.14,-0.14,-0.14
Nc1ncnc2c1c(-c1cccc(OCc3ccccc3)c1)cn2[C@H]1C[C@@H](CN2CCC2)C1 [NVP-AEW541] (top concentration 10000 nM),-1.32,-7.62,-2.72,-2.62,-1.12,-0.62,0.38,-1.52,-3.62,-3.22,-6.02,-2.92,0.58,2.48,-0.42,5.38,-2.02,0.88,-1.42,3.58

# — the supplement of paper PMC8967900
